Laboratory results taken from ChEMBL document CHEMBL4680133, “Novel nitroimidazole derivatives evaluated for their trypanocidal, cytotoxic, and genotoxic activities” (Eur J Med Chem, 2020).

How the values were obtained:
Trypanosoma cruzi [1] = experiment: Antitrypanosomal activity against bloodstream form of Trypanosoma cruzi Y trypomastigotes infected in African green monkey Vero cells assessed as increase in parasite lysis measured after 24 hrs by Neubauer chamber method; assay type: functional, organism-based
[2] = Selectivity index, ratio of GI50 for mouse RAW264.7 cells assessed as reduction in cell viability measured after 24 hrs by WST1 assay to IC50 for antitrypanosomal activity against bloodstream form of Trypanosoma cruzi Y trypomastigotes infected in African green monkey Vero cells; assay type: toxicity; settings: read-out: Selectivity Index
Trypanosoma cruzi [3] = experiment: Antitrypanosomal activity against Trypanosoma cruzi Y axenic amastigotes infected in African green monkey Vero cells after 24 hrs by MTT assay; assay type: functional, organism-based
[4] = Cytotoxicity against human HepG2 cells assessed as reduction in cell viability measured after 24 hrs by WST1 assay; assay type: cell-based
[5] = Selectivity index, ratio of GI50 for human HepG2 cells assessed as reduction in cell viability measured after 24 hrs by WST1 assay to IC50 for antitrypanosomal activity against bloodstream form of Trypanosoma cruzi Y trypomastigotes infected in African green monkey Vero cells; assay type: toxicity; settings: read-out: Selectivity Index
[6] = Selectivity index, ratio of GI50 for human HepG2 cells assessed as reduction in cell viability measured after 24 hrs by WST1 assay to IC50 for antitrypanosomal activity against Trypanosoma cruzi Y axenic amastigotes infected in African green monkey Vero cells; assay type: toxicity; settings: read-out: Selectivity Index
[7] = Cytotoxicity against mouse RAW264.7 cells assessed as reduction in cell viability measured after 24 hrs by WST1 assay; assay type: cell-based
[8] = Selectivity index, ratio of GI50 for mouse RAW264.7 cells assessed as reduction in cell viability measured after 24 hrs by WST1 assay to IC50 for antitrypanosomal activity against Trypanosoma cruzi Y axenic amastigotes infected in African green monkey Vero cells; assay type: toxicity; settings: read-out: Selectivity Index
HepG2 [9] = experiment: Genotoxicity in human HepG2 assessed as number of micronucleated cells at 100 ug/ml measured after 24 hrs by micronucleus test (reference value: 14 to 18); assay type: toxicity, cell-based; settings: hepg2, 24 h, dose 100 µg/ml
[10] = Genotoxicity in human HepG2 assessed as survival at 100 ug/ml measured after 24 hrs by micronucleus test (reference value: 100%); assay type: toxicity, cell-based; settings: HepG2 cells, at 100 µg/mL, read-out: Survival
HepG2 [11] = experiment: Genotoxicity in human HepG2 assessed as mitotic index at 100 ug/ml measured after 24 hrs by micronucleus test (reference value: 61 to 108); assay type: toxicity, cell-based; settings: hepg2, 24 h, dose 100 µg/ml

Compound `Cn1cnc([N+](=O)[O-])c1-n1cc(-c2cccc(N)c2)nn1` has an IC50 (Trypanosoma cruzi [1]) of 41.2 µM.

In the case of `O=C(Cn1ccnc1[N+](=O)[O-])NCc1ccccc1` [BENZNIDAZOLE], the selectivity ratio at 24 h [2] is reported as > 56, the IC50 (Trypanosoma cruzi [1]) is reported as 8.8 µM and the IC50 (Trypanosoma cruzi [3]) is reported as 8.7 µM. The GI50 at 24 h [4] was > 500 µM, the selectivity ratio at 24 h [5] was > 56 and the selectivity ratio at 24 h [6] was > 57. For the same compound, the GI50 at 24 h [7] was > 500 µM and the selectivity ratio at 24 h [8] was > 57.

With `c1ccc2c(c1)cc1ccc3cccc4ccc2c1c34` [BENZO[DEF]CHRYSENE] the Activity (HepG2 [9]) was 31, the viability at 24 h, 100 ug/ml [10] was 99% and the Activity_index (HepG2 [11]) was 57.
